{"source": "paper PMC9482650", "about": "“Quantitative fragmentomics allow affinity mapping of interactomes” (Nature Communications, 2022)", "test_system": "Jurkat cell extract preys", "assay": "PBM-AP-MS, PBM peptide baits", "assay_type": "binding, human", "procedure": "HEK293T and HeLa cells were authenticated and found 100% identity to ATCC cat. CRL-3216 and ATCC cat. CCL-2, respectively. Jurkat and HaCat cell lines were not authenticated (original source: ECACC and Deutsches Krebsforschungszentrum DKFZ, respectively). HeLa cells were grown in DMEM (1 g/L glucose, Gibco) medium completed with 5% FCS and 40 μg/mL gentamicin, diluted every 3rd/4th day 1/10. HaCat cells were grown in DMEM (1 g/L glucose, Gibco) medium completed with 10% FCS and 40 μg/mL gentamicin, diluted every 3rd/4th day 1/4. Jurkat cells were grown in RPMI (Gibco) medium completed with 10% FCS and 40 μg/mL gentamicin, diluted every 3rd/4th day 1/12. All cells were kept at 37 °C and 5% CO2. For proteomics analyses cells were seeded on T-175 flasks. After they reached confluency, adherent cells were washed with PBS once and collected by scraping with ice-cold lysis buffer (Hepes-KOH pH 7.5 50 mM, NaCl 150 mM, Triton X-100 1%, complete EDTA-free protease inhibitor cocktail 1×, EDTA 2 mM, TCEP 5 mM, glycerol 10%). Jurkat cells were collected by 1000 g × centrifugation, washed once with PBS, then collected by 1000 g × 5 min centrifugation again and lysed in ice-cold lysis buffer. Lysates were sonicated 4 × 20 s with 1 s long pulses on ice, then incubated rotating at 4 °C for 30 min. Lysates were centrifuged at 12,000 rpm 4 °C for 20 min and supernatant was kept for further analysis. Concentration determination was carried out by standard Bradford method (Bio-Rad Protein Assay Dye Reagent #5000006) using BSA (MP BIomedicals #160069) as control on a Bio-Rad SmartSpec 3000 spectrophotometer instrument.\nFor PBM-AP-MS experiments, 30 μl streptavidin resin was mixed with biotin or peptide at 50–60 μM concentration in 6–6.5 resin volume for 60 min to achieve resin saturation. For PDZ-AP-MS experiments, 30 μl streptavidin resin was mixed with biotinylated MBP or MBP-PDZ at 40-50 μM concentration in >1000× resin volume for 60 min to achieve resin saturation. After saturation, resins were washed a single time (ten resin volume, holdup buffer), and were depleted with biotin (1 mM biotin, 5–10 resin volume, 10 min). Finally, resins were washed two times. 0.5 ml 2 mg/ml cell lysate was added to the dry resin (1 mg total input) and were incubated at 4 °C for 2 h. Then, the beads were washed three times with 10 resin volume buffer containing: 50 mM TRIS pH 8.5, 150 mM NaCl, 1% TritonX-100, 10× complete EDTA-free protease inhibitor cocktail, 2 mM EDTA, 1 mM TCEP. Then, the beads were washed two times with ten resin volume buffer containing: 50 mM TRIS pH 8.5, 150 mM NaCl, 1 mM TCEP. Finally, captured protein was eluted from the resin in two steps and the eluted fractions were pooled. For each elution the beads were incubated for 30 min with three resin volume buffer containing: 20 mM TRIS pH8.5, 100 mM NaCl, 500 μM TCEP, 8 M Urea. Between each step, the beads were separated by mild centrifugation and the supernatant was removed by gentle pipetting.\nThe samples were precipitated with TCA 20% overnight at 4 °C and centrifuged at 14,000 rpm for 10 min at 4 °C. The protein pellets were washed twice with 1 mL cold acetone and air dried. The protein extracts were solubilized in urea 8 M, reduced with 5 mM TCEP for 30 min, and alkylated with 10 mM iodoacetamide for 30 min in the dark. Double digestion was performed at 37 °C with 500 ng endoproteinase Lys-C for 4 h, followed by fourfold dilution and an overnight digestion with 500 ng trypsin. Peptide mixtures were then desalted on C18 spin-column and dried on Speed-Vacuum.\nSamples were analyzed using an Ultimate 3000 nano-RSLC (Thermo Scientific, San Jose California) coupled in line with a LTQ-Orbitrap ELITE mass spectrometer via a nano-electrospray ionization source (Thermo Scientific, San Jose California). […]", "note": "Ends that are not written are not given here. * marks the point of attachment. Biotin = O=C1N[C@H]2[C@H](CS[C@H]2CCCCC(=O)*)N1; ttds = NCCCOCCOCCOCCCNC(=O)CCC(=O)*"}
{"substance": "HPV18E6", "values": [{"measurement": "Enrichment values compared to biotin controls", "setting": "prey APBA1, PBM peptide bait", "result": 5.1}, {"measurement": "Enrichment values compared to biotin controls", "setting": "prey DLG4, PBM peptide bait", "result": 3.2}, {"measurement": "Enrichment values compared to biotin controls", "setting": "prey DVL2, PBM peptide bait", "result": 1.0}, {"measurement": "Enrichment values compared to biotin controls", "setting": "prey GOPC, PBM peptide bait", "result": 15.5}, {"measurement": "Enrichment values compared to biotin controls", "setting": "prey InaDl, PBM peptide bait", "result": 0.8}, {"measurement": "Enrichment values compared to biotin controls", "setting": "prey LAP2, PBM peptide bait", "result": 2.3}, {"measurement": "Enrichment values compared to biotin controls", "setting": "prey LNX2, PBM peptide bait", "result": 1.0}, {"measurement": "Enrichment values compared to biotin controls", "setting": "prey MAGI3, PBM peptide bait", "result": 5.4}, {"measurement": "Enrichment values compared to biotin controls", "setting": "prey MPP1, PBM peptide bait", "result": 0.547}, {"measurement": "Enrichment values compared to biotin controls", "setting": "prey MPP5, PBM peptide bait", "result": 3.3}, {"measurement": "Enrichment values compared to biotin controls", "setting": "prey MPP6, PBM peptide bait", "result": 2.5}, {"measurement": "Enrichment values compared to biotin controls", "setting": "prey MPP7, PBM peptide bait", "result": 4.4}, {"measurement": "Enrichment values compared to biotin controls", "setting": "prey MYO18A, PBM peptide bait", "result": 0.4}, {"measurement": "Enrichment values compared to biotin controls", "setting": "prey PDLIM2, PBM peptide bait", "result": 1.5}, {"measurement": "Enrichment values compared to biotin controls", "setting": "prey PDLIM5, PBM peptide bait", "result": 0.8}, {"measurement": "Enrichment values compared to biotin controls", "setting": "prey PDLIM7, PBM peptide bait", "result": 1.1}, {"measurement": "Enrichment values compared to biotin controls", "setting": "prey PDZD11, PBM peptide bait", "result": 1.0}, {"measurement": "Enrichment values compared to biotin controls", "setting": "prey PSMD9, PBM peptide bait", "result": 0.8}, {"measurement": "Enrichment values compared to biotin controls", "setting": "prey SIPA1L1, PBM peptide bait", "result": 1.2}, {"measurement": "Enrichment values compared to biotin controls", "setting": "prey SIPA1L2, PBM peptide bait", "result": 1.1}, {"measurement": "Enrichment values compared to biotin controls", "setting": "prey SNTB1, PBM peptide bait", "result": 6.6}, {"measurement": "Enrichment values compared to biotin controls", "setting": "prey SNTB2, PBM peptide bait", "result": 1.1}, {"measurement": "Enrichment values compared to biotin controls", "setting": "prey SNX27, PBM peptide bait", "result": 16.6}, {"measurement": "Enrichment values compared to biotin controls", "setting": "prey SYNJ2BP, PBM peptide bait", "result": 14.2}, {"measurement": "Enrichment values compared to biotin controls", "setting": "prey TX1B3, PBM peptide bait", "result": 7.1}]}
{"substance": "HPV30E6 ({Biotin-ttds}-RHTTSTETAV)", "values": [{"measurement": "Enrichment values compared to biotin controls", "setting": "prey APBA1, PBM peptide bait", "result": 2.1}, {"measurement": "Enrichment values compared to biotin controls", "setting": "prey DLG4, PBM peptide bait", "result": 4.1}, {"measurement": "Enrichment values compared to biotin controls", "setting": "prey DVL2, PBM peptide bait", "result": 0.9}, {"measurement": "Enrichment values compared to biotin controls", "setting": "prey GOPC, PBM peptide bait", "result": 1.2}, {"measurement": "Enrichment values compared to biotin controls", "setting": "prey InaDl, PBM peptide bait", "result": 0.6}, {"measurement": "Enrichment values compared to biotin controls", "setting": "prey LAP2, PBM peptide bait", "result": 2.7}, {"measurement": "Enrichment values compared to biotin controls", "setting": "prey LNX2, PBM peptide bait", "result": 0.543}, {"measurement": "Enrichment values compared to biotin controls", "setting": "prey MAGI3, PBM peptide bait", "result": 2.1}, {"measurement": "Enrichment values compared to biotin controls", "setting": "prey MPP1, PBM peptide bait", "result": 1.4}, {"measurement": "Enrichment values compared to biotin controls", "setting": "prey MPP5, PBM peptide bait", "result": 1.1}, {"measurement": "Enrichment values compared to biotin controls", "setting": "prey MPP6, PBM peptide bait", "result": 1.2}, {"measurement": "Enrichment values compared to biotin controls", "setting": "prey MPP7, PBM peptide bait", "result": 2.8}, {"measurement": "Enrichment values compared to biotin controls", "setting": "prey MYO18A, PBM peptide bait", "result": 1.1}, {"measurement": "Enrichment values compared to biotin controls", "setting": "prey PDLIM2, PBM peptide bait", "result": 1.5}, {"measurement": "Enrichment values compared to biotin controls", "setting": "prey PDLIM5, PBM peptide bait", "result": 0.9}, {"measurement": "Enrichment values compared to biotin controls", "setting": "prey PDLIM7, PBM peptide bait", "result": 1.1}, {"measurement": "Enrichment values compared to biotin controls", "setting": "prey PDZD11, PBM peptide bait", "result": 3.0}, {"measurement": "Enrichment values compared to biotin controls", "setting": "prey PSMD9, PBM peptide bait", "result": 0.7}, {"measurement": "Enrichment values compared to biotin controls", "setting": "prey SIPA1L1, PBM peptide bait", "result": 1.1}, {"measurement": "Enrichment values compared to biotin controls", "setting": "prey SIPA1L2, PBM peptide bait", "result": 0.65}, {"measurement": "Enrichment values compared to biotin controls", "setting": "prey SNTB1, PBM peptide bait", "result": 3.6}, {"measurement": "Enrichment values compared to biotin controls", "setting": "prey SNTB2, PBM peptide bait", "result": 1.0}, {"measurement": "Enrichment values compared to biotin controls", "setting": "prey SNX27, PBM peptide bait", "result": 14.6}, {"measurement": "Enrichment values compared to biotin controls", "setting": "prey SYNJ2BP, PBM peptide bait", "result": 1.5}, {"measurement": "Enrichment values compared to biotin controls", "setting": "prey TX1B3, PBM peptide bait", "result": 1.2}]}
{"substance": "HPV35E6 ({Biotin-ttds}-SKPTRRETEV)", "values": [{"measurement": "Enrichment values compared to biotin controls", "setting": "prey APBA1, PBM peptide bait", "result": 2.9}, {"measurement": "Enrichment values compared to biotin controls", "setting": "prey DLG4, PBM peptide bait", "result": 3.9}, {"measurement": "Enrichment values compared to biotin controls", "setting": "prey DVL2, PBM peptide bait", "result": 1.1}, {"measurement": "Enrichment values compared to biotin controls", "setting": "prey GOPC, PBM peptide bait", "result": 1.3}, {"measurement": "Enrichment values compared to biotin controls", "setting": "prey InaDl, PBM peptide bait", "result": 0.9}, {"measurement": "Enrichment values compared to biotin controls", "setting": "prey LAP2, PBM peptide bait", "result": 2.0}, {"measurement": "Enrichment values compared to biotin controls", "setting": "prey LNX2, PBM peptide bait", "result": 0.8}, {"measurement": "Enrichment values compared to biotin controls", "setting": "prey MAGI3, PBM peptide bait", "result": 3.7}, {"measurement": "Enrichment values compared to biotin controls", "setting": "prey MPP1, PBM peptide bait", "result": 1.3}, {"measurement": "Enrichment values compared to biotin controls", "setting": "prey MPP5, PBM peptide bait", "result": 1.4}, {"measurement": "Enrichment values compared to biotin controls", "setting": "prey MPP6, PBM peptide bait", "result": 1.4}, {"measurement": "Enrichment values compared to biotin controls", "setting": "prey MPP7, PBM peptide bait", "result": 2.9}, {"measurement": "Enrichment values compared to biotin controls", "setting": "prey MYO18A, PBM peptide bait", "result": 0.9}, {"measurement": "Enrichment values compared to biotin controls", "setting": "prey PDLIM2, PBM peptide bait", "result": 1.7}, {"measurement": "Enrichment values compared to biotin controls", "setting": "prey PDLIM5, PBM peptide bait", "result": 0.851}, {"measurement": "Enrichment values compared to biotin controls", "setting": "prey PDLIM7, PBM peptide bait", "result": 1.2}, {"measurement": "Enrichment values compared to biotin controls", "setting": "prey PDZD11, PBM peptide bait", "result": 1.8}, {"measurement": "Enrichment values compared to biotin controls", "setting": "prey PSMD9, PBM peptide bait", "result": 0.748}, {"measurement": "Enrichment values compared to biotin controls", "setting": "prey SIPA1L1, PBM peptide bait", "result": 1.1}, {"measurement": "Enrichment values compared to biotin controls", "setting": "prey SIPA1L2, PBM peptide bait", "result": 1.1}, {"measurement": "Enrichment values compared to biotin controls", "setting": "prey SNTB1, PBM peptide bait", "result": 5.0}, {"measurement": "Enrichment values compared to biotin controls", "setting": "prey SNTB2, PBM peptide bait", "result": 1.1}, {"measurement": "Enrichment values compared to biotin controls", "setting": "prey SNX27, PBM peptide bait", "result": 2.9}, {"measurement": "Enrichment values compared to biotin controls", "setting": "prey SYNJ2BP, PBM peptide bait", "result": 12.5}, {"measurement": "Enrichment values compared to biotin controls", "setting": "prey TX1B3, PBM peptide bait", "result": 4.1}]}
